From US4740233A, “Substituted 1,2,4-triazolo[1,5-a]-pyrimidine-2-sulfonamides and compositions and methods of controlling undesired vegetation and suppressing the nitrification of ammonium nitrogen in soil” (The Dow Chemical Company, priority 1986, dated 1988)

What was measured:
Assay in all cases: Preemergent control of plant species
wheat = format: in vivo, Triticum aestivum; conditions: Triticum aestivum, pre-emergence, 336 h; 0.25 lb/acre; read-out: percent preemergent control
Description: (§1) The seeds of various species of plants were planted in beds of good agricultural soil in a greenhouse. A number of compositions of the present invention, generally in the nature of an aqueous emulsion, were applied at rates listed in the table so as to deposit a predetermined amount of active ingredients uniformly throughout the surface of the bed. Another seed bed was treated only with water to serve as a control. After treatment the seed beds were maintained for two weeks under greenhouse conditions conducive for good plant growth and watered as necessary. Control refers to the reduction in growth compared to the observed results of the same untreated species.

rice = format: in vivo, Oryza sativa; conditions: Oryza sativa, pre-emergence, 336 h; 0.25 lb/acre; read-out: percent preemergent control
Description: as §1

johnson grass = format: in vivo, Sorghum halepense; conditions: Sorghum halepense, pre-emergence, 336 h; 0.25 lb/acre; read-out: percent preemergent control
Description: as §1

velvetleaf = format: in vivo, Abutilon theophrasti; conditions: Abutilon theophrasti, pre-emergence, 336 h; 0.25 lb/acre; read-out: percent preemergent control
Description: as §1

sugar beet = format: in vivo, Beta saccharifera; conditions: Beta vulgaris, pre-emergence, 336 h; 0.25 lb/acre; read-out: percent preemergent control
Description: as §1

corn = format: in vivo, Zea mays; conditions: Zea mays, pre-emergence, 336 h; 0.25 lb/acre; read-out: percent preemergent control
Description: as §1

jimsonweed = format: in vivo, Datura stramonium; conditions: Datura stramonium, pre-emergence, 336 h; 0.25 lb/acre; read-out: percent preemergent control
Description: as §1

soybean = format: in vivo, Glycine max.; conditions: Glycine max, pre-emergence, 336 h; 0.25 lb/acre; read-out: percent preemergent control
Description: as §1

rape = format: in vivo, Brassica napus; conditions: Brassica napus, pre-emergence, 336 h; 0.25 lb/acre; read-out: percent preemergent control
Description: as §1

barnyardgrass = format: in vivo, Echinochloa crusgalli; conditions: Echinochloa crus-galli, pre-emergence, 336 h; 0.25 lb/acre; read-out: percent preemergent control
Description: as §1

annual morning glory = format: in vivo, Ipomoea spp.; conditions: Ipomoea, pre-emergence, 336 h; 0.25 lb/acre; read-out: percent preemergent control
Description: as §1

cotton = format: in vivo, Gossypium spp.; conditions: Gossypium hirsutum, pre-emergence, 336 h; 0.25 lb/acre; read-out: percent preemergent control
Description: as §1

yellow nutsedge = format: in vivo, Cyperus esculentus; conditions: Cyperus, pre-emergence, 336 h; 0.25 lb/acre; read-out: percent preemergent control
Description: as §1

sorghum = format: in vivo, Sorghum vulgare; conditions: Sorghum, pre-emergence, 336 h; 0.25 lb/acre; read-out: percent preemergent control
Description: as §1

yellow foxtail = format: in vivo, Setaria lutescens; conditions: Setaria, pre-emergence, 336 h; 0.25 lb/acre; read-out: percent preemergent control
Description: as §1

Row | Structure (SMILES) | plant injury at 280.212 g/ha (wheat) [%] | plant injury at 280.212 g/ha (rice) [%] | pest or weed control at 280.212 g/ha (johnson grass) [%] | pest or weed control at 280.212 g/ha (velvetleaf) [%] | plant injury at 280.212 g/ha (sugar beet) [%] | plant injury at 280.212 g/ha (corn) [%] | pest or weed control at 280.212 g/ha (jimsonweed) [%] | plant injury at 280.212 g/ha (soybean) [%] | plant injury at 280.212 g/ha (rape) [%] | pest or weed control at 280.212 g/ha (barnyardgrass) [%] | pest or weed control at 280.212 g/ha (annual morning glory) [%] | plant injury at 280.212 g/ha (cotton) [%] | pest or weed control at 280.212 g/ha (yellow nutsedge) [%] | plant injury at 280.212 g/ha (sorghum) [%] | pest or weed control at 280.212 g/ha (yellow foxtail) [%]
1 | COc1nc2nc(S(=O)(=O)Nc3c(Cl)ccc(C)c3Cl)nn2cc1C [Compound 218] | 0 | 0 | 50 | 100 | 100 | 0 | 100 | 100 | 100 | 0 | 100 | 100 | 50 | 95 | 50
2 | COc1nc2nc(S(=O)(=O)Nc3c(C)cccc3[N+](=O)[O-])nn2cc1C [Compound 221] | 90 | 100 | 70 | 100 | 100 | 90 | 100 | 100 | 100 | 100 | 100 | 100 | 100 | 100 | 100
3 | COc1nc2nc(S(=O)(=O)Nc3c(C)cccc3Cl)nn2cc1C [Compound 220] | 100 | 50 | 100 | 100 | 100 | 100 | 100 | 90 | 100 | 90 | 70 | 100 | 100 | 100 | 100
4 | C=C(C)C(=O)N(c1c(F)cccc1F)S(=O)(=O)c1nc2nc(C)ccn2n1 [Compound 286] | 70 | 100 | 100 | 100 | 100 | 50 | 100 | 30 | 100 | 100 | 100 | 100 | 100 | 100 | 100
5 | COc1cccc(F)c1NS(=O)(=O)c1nc2nc(C)ccn2n1 [Compound 171] | 50 | 90 | 100 | 90 | 100 | 40 | 20 | 20 | 100 | 100 | 50 | 70 | 80 | 100 | 100
6 | Cc1cc(C(F)(F)F)n2nc(S(=O)(=O)Nc3c(Cl)cccc3Cl)nc2n1 [Compound 227] | 90 | 50 | 70 | 30 | 100 | 40 | 100 | 0 | 100 | 50 | 70 | 60 | 100 | 100 | 90
7 | COc1nc2nc(S(=O)(=O)Nc3ccccc3C(F)(F)F)nn2cc1C [Compound 217] | 100 | 90 | 100 | 100 | 100 | 50 | 100 | 100 | 100 | 90 | 100 | 100 | 70 | 100 | 50
8 | CCCC(=O)N(c1c(F)cccc1F)S(=O)(=O)c1nc2nc(C)ccn2n1 [Compound 283] | 100 | 100 | 100 | 100 | 100 | 40 | 95 | 20 | 100 | 100 | 80 | 100 | 100 | 100 | 100
9 | CCC(=O)N(c1c(F)cccc1F)S(=O)(=O)c1nc2nc(C)ccn2n1 [Compound 276] | 80 | 90 | 90 | 100 | 100 | 60 | 100 | 10 | 100 | 100 | 90 | 80 | 100 | 100 | 100
10 | COc1nc2nc(S(=O)(=O)Nc3c([N+](=O)[O-])ccc(C)c3C)nn2cc1C [Compound 222] | 0 | 90 | 100 | 100 | 100 | 40 | 100 | 100 | 100 | 0 | 90 | 100 | 50 | 50 | 30
11 | COc1nc2nc(S(=O)(=O)Nc3c(F)ccc(C)c3F)nn2cc1C [Compound 219] | 100 | 50 | 10 | 100 | 100 | 100 | 100 | 100 | 100 | 100 | 100 | 100 | 100 | 100 | 100
12 | Cc1cc(C(F)(F)F)n2nc(S(=O)(=O)Nc3c(F)ccc(C)c3F)nc2n1 [Compound 230] | 30 | 50 | 90 | 90 | 100 | 90 | 100 | 20 | 90 | 100 | 90 | 100 | 100 | 100 | 80
